{"source": "patent US5885998A", "about": "(priority 1998, dated 1999)", "key": {"[1]": {"details": "literature report; cited from earlier work"}, "[2]": {"test_system": "synaptosomes from the striatal area of rat brain (dopamine release)", "assay": "Dopamine release from striatal synaptosomes", "type": "cell-based, rat (Sprague-Dawley)", "protocol": "Dopamine release was measured by preparing synaptosomes from the striatal area of rat brain obtained from Sprague-Dawley rats generally according to the procedures set forth by Nagy et al., J. Neurochem., Vol. 43, pp. 1114-1123 (1984). Striata from 4 rats were homogenized in 2 ml of 0.32M sucrose buffered with 5 mM HEPES (pH 7.5), using a glass-Teflon tissue grinder. The homogenate was diluted to 5 ml with additional homogenization solution and centrifuged at 1,000×g for 10 min. This procedure was repeated on the new pellet and the resulting supernatant was centrifuged at 12,000×g for 20 min. A 3 layer discontinuous Percoll gradient consisting of 16 percent, 10 percent and 7.5 percent Percoll in HEPES-buffered sucrose was made with the final pellet dispersed in the top layer. […] Using this method, 30 to 90 percent of the dopamine was taken up into the synaptosomes, as determined by scintillation counting following filtration through glass fiber filters soaked with 0.5 percent polyethyleneimine. […] After the addition of 0.2 ml of a solution containing various concentrations of ligand, the perfusate was collected into scintillation vials at 1 min. intervals and the dopamine released was quantified by scintillation counting. Peaks of radioactivity released above background were summed and the average basal release during that time was subtracted from the total."}, "[3]": {"details": "literature report; cited from earlier work", "remark": "listed apart in the source"}}}
{"smiles": "CN1CCCC1c1cccnc1", "note": "(stereo not shown) [nicotine]", "values": [{"measurement": "potentiation of certain pharmaceutical compositions used for treatment of certain CNS disorders", "setting": "[1]", "result": "potentiates the pharmacological behavior of certain pharmaceutical compositions"}]}
{"smiles": "CNCC/C=C\\c1cccnc1", "note": "[Sample No. 5, (Z)-metanicotine]", "values": [{"measurement": "Dopamine Release Emax", "setting": "[2]; release as percentage of release obtained with an equal concentration of (S)-(-)-nicotine", "result": 88, "unit": "% nicotine"}]}
{"smiles": "CN1CCC[C@H]1c1cccnc1", "note": "[Sample No. C-1, (S)-(-)-nicotine]", "values": [{"measurement": "effect towards the treatment of various CNS disorders", "setting": "[3]", "result": "positive effect towards the treatment of various CNS disorders"}]}
{"smiles": "CNCC/C=C/c1cccnc1", "note": "[Sample No. 8, (E)-metanicotine]", "values": [{"measurement": "Emax", "setting": "[2]; Rattus norvegicus", "result": 80, "unit": "%"}]}
